Test results from patent publication US8697739B2, “Bicyclic acetyl-CoA carboxylase inhibitors and uses thereof” (Novartis AG, priority 2010, dated 2014).

Biological target: T1, human acetyl-CoA carboxylase 2 (ACC2) (Homo sapiens, UniProt O00763)
T1 construct: The cDNA encoding amino acids 144 to 2458 of human acetyl-CoA carboxylase 2; made in house; host or cells: Sf9 insect cells (baculovirus, pFastBac1)
Assay: Acetyl-CoA carboxylase enzyme assay (malonyl-CoA formation by LC/MS/MS)
Format: biochemical
Conditions: recombinant human ACC2 (aa 144-2458); read-out: IC50 ACC2
Outline: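 Malonyl-CoA formation was read by LC/MS/MS MRM against a [13C3]-malonyl-CoA internal standard, after acetic acid quench. The enzyme was baculovirus/Sf9-expressed human ACC2 residues 144–2458, given 15 minutes room-temperature compound preincubation in HEPES pH 7.5 buffer with MgCl2, citrate and DTT. Substrate solution held 50 μM acetyl-CoA, 120 μM ATP and 2 mM KHCO3.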

T1 sequence (O00763 144-2458): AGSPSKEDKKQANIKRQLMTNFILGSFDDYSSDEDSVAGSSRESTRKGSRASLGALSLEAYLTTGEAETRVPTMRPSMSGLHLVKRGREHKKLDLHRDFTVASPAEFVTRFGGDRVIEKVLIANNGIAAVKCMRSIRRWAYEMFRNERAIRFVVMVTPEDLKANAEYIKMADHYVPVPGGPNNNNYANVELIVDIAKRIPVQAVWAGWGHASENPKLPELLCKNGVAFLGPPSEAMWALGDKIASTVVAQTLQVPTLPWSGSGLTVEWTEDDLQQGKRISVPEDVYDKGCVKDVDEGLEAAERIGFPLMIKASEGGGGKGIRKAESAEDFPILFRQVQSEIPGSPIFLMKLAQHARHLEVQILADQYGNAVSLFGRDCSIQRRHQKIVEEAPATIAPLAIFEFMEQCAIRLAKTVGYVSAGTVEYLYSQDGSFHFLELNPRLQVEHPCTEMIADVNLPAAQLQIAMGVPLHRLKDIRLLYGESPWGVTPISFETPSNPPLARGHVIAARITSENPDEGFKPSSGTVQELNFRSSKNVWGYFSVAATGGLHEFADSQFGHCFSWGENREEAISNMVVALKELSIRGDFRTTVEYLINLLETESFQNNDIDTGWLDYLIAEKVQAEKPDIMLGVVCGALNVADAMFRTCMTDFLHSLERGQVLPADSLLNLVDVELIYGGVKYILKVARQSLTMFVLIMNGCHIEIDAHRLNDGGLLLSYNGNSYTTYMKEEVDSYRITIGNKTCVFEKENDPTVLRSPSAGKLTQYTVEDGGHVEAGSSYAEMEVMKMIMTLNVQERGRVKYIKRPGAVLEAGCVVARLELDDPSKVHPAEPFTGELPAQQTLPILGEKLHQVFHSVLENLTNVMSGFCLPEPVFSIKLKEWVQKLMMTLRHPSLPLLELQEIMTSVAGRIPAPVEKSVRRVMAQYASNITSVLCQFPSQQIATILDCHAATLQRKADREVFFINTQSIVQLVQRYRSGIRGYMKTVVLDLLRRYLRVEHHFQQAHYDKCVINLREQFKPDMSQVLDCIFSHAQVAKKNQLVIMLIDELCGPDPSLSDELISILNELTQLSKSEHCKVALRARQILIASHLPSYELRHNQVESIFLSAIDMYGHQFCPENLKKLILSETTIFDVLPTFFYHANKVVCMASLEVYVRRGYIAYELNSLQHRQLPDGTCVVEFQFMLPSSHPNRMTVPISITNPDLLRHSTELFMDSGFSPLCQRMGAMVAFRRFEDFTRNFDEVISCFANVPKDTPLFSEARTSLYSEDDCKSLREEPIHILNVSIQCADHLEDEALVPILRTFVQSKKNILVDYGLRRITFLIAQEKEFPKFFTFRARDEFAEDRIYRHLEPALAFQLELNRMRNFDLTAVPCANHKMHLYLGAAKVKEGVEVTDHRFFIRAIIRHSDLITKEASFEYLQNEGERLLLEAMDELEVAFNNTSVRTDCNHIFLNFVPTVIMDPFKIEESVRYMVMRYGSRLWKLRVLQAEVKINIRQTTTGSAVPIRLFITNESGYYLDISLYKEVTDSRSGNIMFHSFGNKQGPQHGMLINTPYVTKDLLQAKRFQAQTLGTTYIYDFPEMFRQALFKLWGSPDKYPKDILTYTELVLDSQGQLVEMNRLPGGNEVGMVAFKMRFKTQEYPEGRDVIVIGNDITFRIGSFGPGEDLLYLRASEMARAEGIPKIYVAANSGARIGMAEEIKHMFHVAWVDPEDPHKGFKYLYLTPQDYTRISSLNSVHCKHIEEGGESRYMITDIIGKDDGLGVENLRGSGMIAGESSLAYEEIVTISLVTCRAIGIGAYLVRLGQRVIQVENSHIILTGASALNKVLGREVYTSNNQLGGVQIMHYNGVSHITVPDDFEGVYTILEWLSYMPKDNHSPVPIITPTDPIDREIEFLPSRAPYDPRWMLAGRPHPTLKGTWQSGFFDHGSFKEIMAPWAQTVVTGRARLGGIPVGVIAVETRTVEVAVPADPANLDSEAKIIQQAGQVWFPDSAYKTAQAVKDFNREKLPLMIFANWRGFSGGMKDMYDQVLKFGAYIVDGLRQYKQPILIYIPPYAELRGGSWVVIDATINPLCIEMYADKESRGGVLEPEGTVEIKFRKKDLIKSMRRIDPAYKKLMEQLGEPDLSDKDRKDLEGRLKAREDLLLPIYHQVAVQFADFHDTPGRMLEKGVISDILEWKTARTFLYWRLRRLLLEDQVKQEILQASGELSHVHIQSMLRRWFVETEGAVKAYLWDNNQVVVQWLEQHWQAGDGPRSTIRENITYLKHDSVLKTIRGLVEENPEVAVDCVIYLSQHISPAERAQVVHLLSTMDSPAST

IC50 [nM] | Compound
765 | C[C@@H](NC(=O)[C@H]1CC[C@H](NS(=O)(=O)c2ccc3nc(N4CCN(C(=O)OC(C)(C)C)CC4)ccc3c2)CC1)c1ccc(F)cc1 [Example 232, tert-butyl 4-(6-(N-((1R,4r)-4-((R)-1-(4-fluorophenyl)ethylcarbamoyl)cyclohexyl)sulfamoyl)quinolin-2-yl)piperazine-1-carboxylate]
20 | CCOc1ccc2cc(S(=O)(=O)N[C@H]3CC[C@H](C(=O)N4CCNC[C@@H]4c4ccccc4)CC3)ccc2n1 [Example 234, 2-ethoxy-N-((1S,4r)-4-((S)-2-phenylpiperazine-1-carbonyl)cyclohexyl)quinoline-6-sulfonamide]
95 | CCOc1ccc2cc(S(=O)(=O)N[C@H]3CC[C@H](C(=O)N4CCN(C(=O)OC(C)(C)C)C[C@@H]4C(=O)OC)CC3)ccc2n1 [Example 235, (R)-1-tert-butyl 3-methyl 4-((1r,4R)-4-(2-ethoxyquinoline-6-sulfonamido)cyclohexanecarbonyl)piperazine-1,3-dicarboxylate]
385 | CCOc1ccc2cc(S(=O)(=O)N[C@H]3CC[C@H](C(=O)N4CCNC[C@@H]4C(=O)OC)CC3)ccc2n1 [Example 236, (R)-methyl 1-((1r,4R)-4-(2-ethoxyquinoline-6-sulfonamido)cyclohexanecarbonyl)piperazine-2-carboxylate]
< 10 | CC(C)(C)OC(=O)N1CCN(C(=O)[C@H]2CC[C@H](NS(=O)(=O)c3ccc4c(c3)Cc3ccccc3-4)CC2)[C@@H](c2ccccc2)C1 [Example 240, (S)-tert-butyl 4-((1r,4S)-4-(9H-fluorene-2-sulfonamido)cyclohexanecarbonyl)-3-phenylpiperazine-1-carboxylate]
25 | CC(C)(C)OC(=O)N1CCN(C(=O)[C@H]2CC[C@H](NS(=O)(=O)c3ccc4c(c3)CCC4)CC2)[C@@H](c2ccccc2)C1 [Example 241, (S)-tert-butyl 4-((1r,4S)-4-(2,3-dihydro-1H-indene-5-sulfonamido)cyclohexanecarbonyl)-3-phenylpiperazine-1-carboxylate]
< 10 | O=C([C@H]1CC[C@H](NS(=O)(=O)c2ccc3c(c2)Cc2ccccc2-3)CC1)N1CCNC[C@@H]1c1ccccc1 [Example 244, N-((1S,4r)-4-((S)-2-phenylpiperazine-1-carbonyl)cyclohexyl)-9H-fluorene-2-sulfonamide]
35 | O=C([C@H]1CC[C@H](NS(=O)(=O)c2ccc3c(c2)CCC3)CC1)N1CCNC[C@@H]1c1ccccc1 [Example 245, N-((1S,4r)-4-((S)-2-phenylpiperazine-1-carbonyl)cyclohexyl)-2,3-dihydro-1H-indene-5-sulfonamide]
> 35000 | CCOc1ccc2cc(S(=O)(=O)N[C@H]3CC[C@H](C(=O)N4CCNC[C@@H]4C(=O)O)CC3)ccc2n1 [Example 246, (R)-1-((1r,4R)-4-(2-ethoxyquinoline-6-sulfonamido)cyclohexanecarbonyl)piperazine-2-carboxylic acid]
35 | C[C@@H](NC(=O)[C@H]1CC[C@H](NS(=O)(=O)c2ccc3c(c2)N(C)[C@@H](C(=O)O)CC3)CC1)c1ccc(F)cc1 [Example 251, (R)-7-(N-((1R,4R)-4-((R)-1-(4-fluorophenyl)ethylcarbamoyl)cyclohexyl)sulfamoyl)-1-methyl-1,2,3,4-tetrahydroquinoline-2-carboxylic acid]

Continued, molecule first:

Compound | IC50 [nM]
CCOc1ccc2cc(S(=O)(=O)N[C@H]3CC[C@](C)(C(=O)N[C@H](C)c4ccc(F)cc4)CC3)ccc2n1 [Example 231, (1r,4R)-4-(2-ethoxyquinoline-6-sulfonamido)-N-((R)-1-(4-fluorophenyl)ethyl)-1-methylcyclohexanecarboxamide] | 10
C[C@@H](NC(=O)[C@H]1CC[C@H](NS(=O)(=O)c2cnc3c(c2)N(C(=O)COCc2ccccc2)CCN3)CC1)c1ccc(F)cc1 [Example 233, (1r,4R)-4-(1-(2-(benzyloxy)acetyl)-1,2,3,4-tetrahydropyrido[3,2-b]pyrazine-7-sulfonamido)-N-((R)-1-(4-fluorophenyl)ethyl)cyclohexanecarboxamide] | 965
C[C@@H](NC(=O)[C@H]1CC[C@H](NS(=O)(=O)c2ccc3nc(N4CCNC5(CC5)C4)ccc3c2)CC1)c1ccc(F)cc1 [Example 237, (1r,4R)-4-(2-(4,7-diazaspiro[2.5]octan-7-yl)quinoline-6-sulfonamido)-N-((R)-1-(4-fluorophenyl)ethyl)cyclohexanecarboxamide] | 85
C[C@@H](NC(=O)[C@H]1CC[C@H](NS(=O)(=O)c2ccc3nc(N4CCNCC4)ccc3c2)CC1)c1ccc(F)cc1 [Example 238, (1r,4R)-N-((R)-1-(4-fluorophenyl)ethyl)-4-(2-(piperazin-1-yl)quinoline-6-sulfonamido)cyclohexanecarboxamide] | 65
CCNC(=O)N1CCNc2ccc(S(=O)(=O)N[C@H]3CC[C@H](C(=O)N[C@H](C)c4ccc(F)cc4)CC3)cc21 [Example 239, N-ethyl-7-(N-((1R,4r)-4-((R)-1-(4-fluorophenyl)ethylcarbamoyl)cyclohexyl)sulfamoyl)-3,4-dihydroquinoxaline-1(2H)-carboxamide] | 130
COC(=O)C1CN(c2ccc3cc(S(=O)(=O)N[C@H]4CC[C@H](C(=O)N[C@H](C)c5ccc(F)cc5)CC4)ccc3n2)CCN1 (stereo partly drawn) [Example 242, methyl 4-(6-(N-((1R,4r)-4-((R)-1-(4-fluorophenyl)ethylcarbamoyl)cyclohexyl)sulfamoyl)quinolin-2-yl)piperazine-2-carboxylate] | 195
C[C@@H](NC(=O)[C@H]1CC[C@H](NS(=O)(=O)c2ccc3oc4ccccc4c3c2)CC1)c1ccc(F)cc1 [Example 243, (1r,4R)-4-(dibenzo[b,d]furan-2-sulfonamido)-N-((R)-1-(4-fluorophenyl)ethyl)cyclohexanecarboxamide] | 15
C[C@@H](NC(=O)[C@H]1CC[C@H](NS(=O)(=O)c2ccc3nc(C#CCN4CCNCC4)ccc3c2)CC1)c1ccc(F)cc1 [Example 247, (1r,4R)-N-((R)-1-(4-fluorophenyl)ethyl)-4-(2-(3-(piperazin-1-yl)prop-1-ynyl)quinoline-6-sulfonamido)cyclohexanecarboxamide] | 30
C[C@@H](NC(=O)[C@H]1CC[C@H](NS(=O)(=O)c2ccc3nc(N4CCNC(C(F)(F)F)C4)ccc3c2)CC1)c1ccc(F)cc1 (stereo partly drawn) [Example 248, (1r,4R)-N-((R)-1-(4-fluorophenyl)ethyl)-4-(2-(3-(trifluoromethyl)piperazin-1-yl)quinoline-6-sulfonamido)cyclohexanecarboxamide] | 210
C[C@@H](NC(=O)[C@H]1CC[C@H](NS(=O)(=O)c2ccc3nc(-c4cccc(C(=O)O)c4)ccc3c2)CC1)c1ccc(F)cc1 [Example 249, 3-(6-(N-((1R,4r)-4-((R)-1-(4-fluorophenyl)ethylcarbamoyl)cyclohexyl)sulfamoyl)quinolin-2-yl)benzoic acid] | 10
C[C@@H](NC(=O)[C@H]1CC[C@H](NS(=O)(=O)c2ccc3c(c2)N(C)[C@H](C(=O)O)CC3)CC1)c1ccc(F)cc1 [Example 250, (S)-7-(N-((1R,4S)-4-((R)-1-(4-fluorophenyl)ethylcarbamoyl)cyclohexyl)sulfamoyl)-1-methyl-1,2,3,4-tetrahydroquinoline-2-carboxylic acid] | 595
